Measurements taken from patent US20220233471A1, “PRODRUG COMPOSITIONS AND METHODS OF TREATMENT” (AQUESTIVE THERAPEUTICS, INC., priority 2021, published 2022).
“Also recorded” adds a separate entry of the source.

Columns and labels:
[1] = stability in sodium metabisulfite; type: physicochemical
Text: A prodrug can present improved hydrophobicity, better permeation, dose reduction, and enhanced speed of absorption. It can also provide alternative compositions with unique stability profiles. […] A prodrug that is not absorbed in the stomach can also avoid, minimize or eliminate the side effect of epigastric pain. Moreover, a prodrug can result in reduced adrenergic receptor binding, resulting in reduced variability of vasoconstriction and more stability.

[2] = tested on: human lung epithelial cells; experiment: LDH cytotoxicity / release assay in EpiAirway 3D culture; type: cell-based; conditions: for toxicity / cell viability in the LDH assay: 0.1 mM, 1 mM, 2 mM; for cell viability in the LDH assay: 5 mM, 10 mM, 50 mM
Protocol: (§1) Epinephrine prodrugs were evaluated. In vitro inhalation models were employed. In particular, an esterase hydrolysis assay was employed using human branchoalveolar lavage (BAL) fluid to examine prodrug stability. A permeability assay using in vitro a 3D culture model (EpiAirways, MatTek) of human lung epithelial cells was also performed. The 3D culture system mimics the structure of lungs, allowing for study of the hydrolysis of prodrugs in the lungs by esterases and the systemic permeability data. The EpiAirway 3D culture includes a ciliated apical surface, mucociliary epithelium and microporous membrane.
(§2) Compounds were incubated at different concentrations (5 mM, 10 mM, and 50 mM). Cell viability was assessed by LDH Cytotoxicity Detection kit (Takara # MK401) and MTT tissue viability assay kit (MatTek, # MTT-100). Receiver media were removed at different timepoints, 0.5, 1, 2, 3, 4, 6 hrs to test permeability; Samples were extracted and analyzed by an LC-MS method.
(§3) Referring to FIGS. 3C-3D Dipivefrin and AQEP-09 toxicity and permeability using human lung epithelial cells was also studied in the EpiAirway model. Compounds were incubated at different concentrations (0.1 mM, 1 mM, 2 mM) and cell viability was assessed by LDH release assay and MTT assay. See, e.g., Aysun Adan, Yağmur Kiraz and Yusuf Baran, “Cell Proliferation and Cytotoxicity Assays”, Current Pharmaceutical Biotechnology (2016) 17: 1213, which is incorporated by reference in its entirety. Receiver media were removed at different timepoints, 1, 2, 3, 4 hrs to test permeability. Samples were extracted and analyzed by LC-MS method.

[3] = esterase hydrolysis assay in human BAL fluid (prodrug stability); type: in vitro ADME; conditions: Human BAL fluid from 2 subjects; 1 μM; stabilizer sodium metabisulfite 8.9 mM; LC-MS
Protocol: Epinephrine prodrugs were evaluated. In vitro inhalation models were employed.
Hydrolysis of dipivefrin or AQEP-09 was studied in vitro in Human BAL fluid by measuring the epinephrine concentration. Frozen BAL fluid was used from 2 subjects. Compounds were incubated at 1 μM in the presence of a stabilizer (sodium metabisulfite, 8.9 mM). Samples were removed after stopping the enzyme reaction using NaF or SigmaFast at different timepoints. Samples were extracted and analyzed by LC-MS method. […] Less than 5% hydrolysis was observed.

[4] = tested on: 3D culture model (EpiAirways, MatTek) of human lung epithelial cells
Protocol: as §1
In vitro permeability of the 3D culture was studied.
The Franz diffusion cell apparatus consists of two chambers separated by a membrane. The permeation studies were conducted using the 3D lung cell culture. The tissue membrane separates the donor compartment containing the prodrug and the receptor compartment containing the collection media whish was selected to provide sink conditions throughout the experiment.
as §2, §3

[5] = particle size distribution of jet-milled (micronized) prodrugs; type: physicochemical; conditions: feed rate 840 g/hr
Protocol: Both dipivefrin and Diisobutyryl L-epinephrine were micronized using the jet milling process using nitrogen. The effect of pressure and feed rates were determined. The particle sizes of the micronized material are shown in the Table 1 and micronized/milled material suitable for drug powder inhalation (2-5 μm) were manufactured.

[6] = aerodynamic particle size of exposure aerosol (Aerodynamic Particle Sizer); type: physicochemical; conditions: exposure aerosol of micronized powder
Text: Mass median aerodynamic diameter (MMAD) of AQEP-09 was 1.57 μm (Geometric Standard Deviation (GSD) 1.74) and MMAD for Dipivefrin was 1.47 μm (GSD 2.63).

[7] = excipient compatibility study with dry powder inhalation carriers; type: physicochemical
Protocol: Compatibility of epinephrine prodrugs Disobutyryl L-epinephrine (AQEP-09) and Dipivefrin was studied with common carriers used for dry powder inhalation applications. Lactose monohydrate, Lactose anhydrous and Mannitol were used for the stability evaluation. Mixtures of the micronized API and the carriers were tested under stability conditions, 25° C./60%RH and 40° C./75%RH.

[8] = pharmacokinetics of epinephrine in Beagle dogs after bolus inhalation of prodrugs or IM EpiPen; type: in vivo; conditions: inhalation 0.4 vs 0.2 mg/kg (target 2×)
[9] = nitrogen milling pressure 1.5 bar
[10] = nitrogen milling pressure 3.5 bar
[11] = Lactose Anhydrous, 25° C./60% RH, 0 weeks
[12] = Lactose Anhydrous, 25° C./60% RH, 2 weeks
[13] = Lactose Anhydrous, 25° C./60% RH, 4 weeks
[14] = Lactose Anhydrous, 40° C./75% RH, 0 weeks
[15] = Lactose Anhydrous, 40° C./75% RH, 2 weeks
[16] = Lactose Anhydrous, 40° C./75% RH, 4 weeks
[17] = Lactose Monohydrate, 25° C./60% RH, 0 weeks
[18] = Lactose Monohydrate, 25° C./60% RH, 2 weeks
[19] = Lactose Monohydrate, 25° C./60% RH, 4 weeks
[20] = Lactose Monohydrate, 40° C./75% RH, 0 weeks
[21] = Lactose Monohydrate, 40° C./75% RH, 2 weeks
[22] = Lactose Monohydrate, 40° C./75% RH, 4 weeks
[23] = Mannitol, 25° C./60% RH, 0 weeks
[24] = Mannitol, 25° C./60% RH, 2 weeks
[25] = Mannitol, 25° C./60% RH, 4 weeks
[26] = Mannitol, 40° C./75% RH, 0 weeks
[27] = Mannitol, 40° C./75% RH, 2 weeks
[28] = Mannitol, 40° C./75% RH, 4 weeks

| Compound | toxicity / cell viability in the LDH assay [2] | hydrolysis to epinephrine [3] | Particle size d10 [5, 9] | Particle size d50 [5, 9] | Particle size d90 [5, 9] | Particle size d10 [5, 10] | Particle size d50 [5, 10] | Particle size d90 [5, 10] | GSD [6] | MMAD [6] | Assay (Percent Label Claim) [7, 11] | Assay (Percent Label Claim) [7, 12] | Assay (Percent Label Claim) [7, 13] | Assay (Percent Label Claim) [7, 14] | Assay (Percent Label Claim) [7, 15] | Assay (Percent Label Claim) [7, 16] | Assay (Percent Label Claim) [7, 17] | Assay (Percent Label Claim) [7, 18] | Assay (Percent Label Claim) [7, 19] | Assay (Percent Label Claim) [7, 20] | other results |
| --- | --- | --- | --- | --- | --- | --- | --- | --- | --- | --- | --- | --- | --- | --- | --- | --- | --- | --- | --- | --- | --- |
| CNCC(O)c1ccc(OC(=O)C(C)(C)C)c(OC(=O)C(C)(C)C)c1 (stereo not drawn) [Dipivefrin] | lower cell viability | minimal hydrolysis | d10-0.91 μm | d50-6.24 μm | d90-13.18 μm | d10-0.53 μm | d50-1.27 μm | d90-2.92 μm | 2.63 | 1.47 μm | 100% | 100% | 96% | 100% | 99% | 95% | 100% | 101% | 96% | 100% | stability in sodium metabisulfite [1]: unstable; cell viability in the LDH assay ([2]; 6 h): cell viability was reduced at all doses; cell viability in the LDH assay ([2]; 24 hr): viability was improved; permeability in human lung model [4]: dose dependent permeability; Assay (Percent Label Claim) [7, 21]: 96%; Assay (Percent Label Claim) [7, 22]: 81%; Assay (Percent Label Claim) [7, 23]: 100%; Assay (Percent Label Claim) [7, 24]: 101%; Assay (Percent Label Claim) [7, 25]: 98%; Assay (Percent Label Claim) [7, 26]: 100%; Assay (Percent Label Claim) [7, 27]: 101%; Assay (Percent Label Claim) [7, 28]: 95% |
| CNCC(O)c1ccc(OC(=O)C(C)C)c(OC(=O)C(C)C)c1 [AQEP-09, Diisobutyryl L-epinephrine] | did not show any toxicity; also recorded: no or less toxicity | minimal hydrolysis | d10-10.30 μm | d50-55.70 μm | d90-132.75 μm | d10-0.46 μm | d50-1.12 μm | d90-2.37 μm | 1.74 | 1.57 μm | 100% | 103% | 103% | 100% | 97% | 87% | 100% | 100% | 97% | 100% | permeability compared to Dipivefrin [4]: lower permeability; increase in dose that shows comparable permeability to Dipivefrin ([4]; human): 50%; Assay (Percent Label Claim) [7, 21]: 94%; Assay (Percent Label Claim) [7, 22]: 83%; Assay (Percent Label Claim) [7, 23]: 100%; Assay (Percent Label Claim) [7, 24]: 96%; Assay (Percent Label Claim) [7, 25]: 96%; Assay (Percent Label Claim) [7, 26]: 100%; Assay (Percent Label Claim) [7, 27]: 95%; Assay (Percent Label Claim) [7, 28]: 84%; Overall dose response [8]: slightly less than dose proportional |
